This is an account of results in PubChem BioAssay AID330 (DTP/NCI, 2004).

The assay deals with P388 leukemia ip, CD2F1 mice, survival T/C. The assay is described as follows: NCI In Vivo Anticancer Drug Screen. Data for tumor model P388 Leukemia (intraperitoneal) in CD2F1 (CDF1) mice. The note with it: endpoint: median survival time, higher = longer survival. The essentials:
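Mice carrying the transplanted tumor received test compound or vehicle. Survival was recorded in each group, and the value is the treated-group measurement divided by that of the vehicle-treated control group.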

[1] abbreviates: dose: 100.0 mg/kg/injection, schedule: Q01DX001 (ip), vehicle: Klucel (hydroxypropylcellulose) (HPC).
Setting [2] is: dose: 100.0 mg/kg/injection, schedule: Q04DX002 (ip), vehicle: saline.
The mark [3] stands for this setting: dose: 200.0 mg/kg/injection, schedule: Q04DX002 (ip), vehicle: saline.
Where [4] appears, read: dose: 400.0 mg/kg/injection, schedule: Q04DX002 (ip), vehicle: saline.
The mark [5] stands for this setting: dose: 50.0 mg/kg/injection, schedule: Q01DX009 (ip), vehicle: Klucel (hydroxypropylcellulose) (HPC).
Where [6] appears, read: dose: 100.0 mg/kg/injection, schedule: Q01DX009 (ip), vehicle: Klucel (hydroxypropylcellulose) (HPC).
Where [7] appears, read: dose: 200.0 mg/kg/injection, schedule: Q01DX009 (ip), vehicle: Klucel (hydroxypropylcellulose) (HPC).
Setting [8] is: dose: 50.0 mg/kg/injection, schedule: Q01DX001 (ip), vehicle: Klucel (hydroxypropylcellulose) (HPC).
The mark [9] stands for this setting: dose: 12.5 mg/kg/injection, schedule: Q01DX009 (ip), vehicle: saline.
[10] abbreviates: dose: 25.0 mg/kg/injection, schedule: Q01DX009 (ip), vehicle: saline.
[11] abbreviates: dose: 50.0 mg/kg/injection, schedule: Q01DX009 (ip), vehicle: saline.
The mark [12] stands for this setting: dose: 100.0 mg/kg/injection, schedule: Q01DX009 (ip), vehicle: saline.
Where [13] appears, read: dose: 60.0 mg/kg/injection, schedule: Q01DX005 (ip), vehicle: saline with Tween-80.
[14] abbreviates: dose: 120.0 mg/kg/injection, schedule: Q01DX005 (ip), vehicle: saline with Tween-80.
Where [15] appears, read: dose: 240.0 mg/kg/injection, schedule: Q01DX005 (ip), vehicle: saline with Tween-80.
Where [16] appears, read: dose: 25.0 mg/kg/injection, schedule: Q01DX009 (ip), vehicle: saline with Tween-80.
The mark [17] stands for this setting: dose: 50.0 mg/kg/injection, schedule: Q01DX009 (ip), vehicle: saline with Tween-80.
Setting [18] is: dose: 200.0 mg/kg/injection, schedule: Q01DX009 (ip), vehicle: saline with Tween-80.
Setting [19] is: dose: 12.5 mg/kg/injection, schedule: Q01DX005 (ip), vehicle: Klucel (hydroxypropylcellulose) (HPC).
[20] abbreviates: dose: 25.0 mg/kg/injection, schedule: Q01DX005 (ip), vehicle: Klucel (hydroxypropylcellulose) (HPC).
Where [21] appears, read: dose: 50.0 mg/kg/injection, schedule: Q01DX005 (ip), vehicle: saline with Tween-80.
[22] abbreviates: dose: 100.0 mg/kg/injection, schedule: Q01DX005 (ip), vehicle: saline with Tween-80.
The mark [23] stands for this setting: dose: 200.0 mg/kg/injection, schedule: Q01DX005 (ip), vehicle: saline with Tween-80.
[24] abbreviates: dose: 100.0 mg/kg/injection, schedule: Q01DX009 (ip), vehicle: saline with Tween-80.

The structures appear in SMILES notation. Where “and” joins values, the source holds several entries; their conditions need not be identical. Identical values can stand only once. Toxic doses and inconclusive results are not listed.

Turning to `Clc1ccc(-c2cn3c(n2)SCC3)cc1`, the T/C under setting [1] is 121 % of control; the T/C (dose: 100.0 mg/kg/injection, schedule: Q04DX002 (ip), vehicle: Klucel (hydroxypropylcellulose) (HPC)) is 102 % of control; the T/C (dose: 200.0 mg/kg/injection, schedule: Q01DX001 (ip), vehicle: Klucel (hydroxypropylcellulose) (HPC)) was 88 % of control; the T/C (dose: 200.0 mg/kg/injection, schedule: Q04DX002 (ip), vehicle: Klucel (hydroxypropylcellulose) (HPC)) was 104 % of control; the T/C (dose: 400.0 mg/kg/injection, schedule: Q04DX002 (ip), vehicle: Klucel (hydroxypropylcellulose) (HPC)) was 106 % of control.
Regarding `Cc1cccc(NC(=O)CCC(=O)NS(C)(=O)=O)c1`, the T/C is, setting by setting: under setting [2], 103 % of control; under setting [3], 102 % of control; under setting [4], 100 % of control.
Consider `C[N+]1=C2CCCCCC2=C(N)CC1`, for which the T/C (dose: 3.13 mg/kg/injection, schedule: Q04DX003 (ip), vehicle: saline) is 100 % of control; the T/C (dose: 6.25 mg/kg/injection, schedule: Q04DX003 (ip), vehicle: saline) was 104 % of control; the T/C (dose: 12.5 mg/kg/injection, schedule: Q04DX003 (ip), vehicle: saline) was 100 % of control.
Regarding `CCCCCCCC/C=C\CCCCCCCCCCCC(=O)OC/C=C/COC(=O)c1ccccc1`, the T/C was 100 % of control under setting [5], 95 % of control under setting [6] and 100 % of control under setting [7].
`O=C(O)c1ccc(N=Nc2ccc(N(CCCl)CCCl)cc2C(=O)O)cc1`: the T/C runs as follows: under setting [8], 100 % of control; under setting [1], 107 % of control.
Regarding `Cn1cnccc1=O`, the T/C runs as follows: (dose: 6.25 mg/kg/injection, schedule: Q01DX009 (ip), vehicle: saline) 102 % of control; under setting [9], 103 % of control; under setting [10], 106 % of control; under setting [11], 106 % of control; under setting [12], 103 % of control.
For the compound `CC(C)[Si](C#CC[Si](C(C)C)(C(C)C)C(C)C)(C(C)C)C(C)C`, the T/C is, setting by setting: under setting [13], 105 % of control; under setting [14], 98 % of control; under setting [15], 100 % of control.
As to `CCCCOP(O)(=S)OCCCC.[Gd]`, the T/C is 92 % of control under setting [16]; 87 % of control and 98 % of control under setting [17]; 86 % of control under setting [18].
For the compound `COc1ccc(C2COc3c(ccc(O)c3O)C2)cc1` (stereo unspecified), the T/C was 104 % of control under setting [13], 96 % of control under setting [14] and 99 % of control under setting [15].
Take `S=C1CCCCCN1`: the T/C under setting [19] is 107 % of control; the T/C under setting [20] is 100 % of control; the T/C (dose: 50.0 mg/kg/injection, schedule: Q01DX005 (ip), vehicle: Klucel (hydroxypropylcellulose) (HPC)) was 103 % of control and 104 % of control.
`CO/N=C1\CC[C@@]2(C)[C@@H](CC[C@@H]3[C@@H]2CC[C@]2(C)C([C@H](C)CCCC(C)C)CC[C@@H]32)C1` (stereo partly specified): the T/C by setting is: under setting [21], 97 % of control; under setting [22], 95 % of control; under setting [23], 100 % of control.
Regarding `C[C@@]1(CO)[C@H](O)CC[C@@]2(C)[C@H]1CC[C@H]1C[C@@H]3C[C@@]12CC[C@@]3(O)COC(=O)CN`, the T/C was 113 % of control (dose: 5.0 mg/kg/injection, schedule: Q03HX027 (ip), vehicle: saline + alcohol); 118 % of control (dose: 10.0 mg/kg/injection, schedule: Q03HX027 (ip), vehicle: saline + alcohol); 105 % of control and 107 % of control under setting [9]; 118 % of control (dose: 15.0 mg/kg/injection, schedule: Q01DX009 (ip), vehicle: saline + alcohol); 105 % of control (dose: 25.0 mg/kg/injection, schedule: Q01DX005 (iv), vehicle: saline); 107 % of control and 122 % of control under setting [10]. For the same compound, the T/C was 117 % of control (dose: 30.0 mg/kg/injection, schedule: Q01DX009 (ip), vehicle: saline + alcohol); 106 % of control (dose: 40.0 mg/kg/injection, schedule: Q03HX027 (ip), vehicle: saline + alcohol); 99 % of control (dose: 50.0 mg/kg/injection, schedule: Q01DX005 (iv), vehicle: saline); 114 % of control under setting [11]; 101 % of control (dose: 100.0 mg/kg/injection, schedule: Q01DX005 (iv), vehicle: saline); 122 % of control under setting [12]. Moreover, the T/C runs as follows: (dose: 120.0 mg/kg/injection, schedule: Q01DX009 (ip), vehicle: saline + alcohol) 95 % of control; (dose: 200.0 mg/kg/injection, schedule: Q01DX005 (iv), vehicle: saline) 115 % of control.
In the case of `CCCCCCCCCCNCCSSc1ccccc1`, the T/C runs as follows: (dose: 6.25 mg/kg/injection, schedule: Q01DX005 (ip), vehicle: Klucel (hydroxypropylcellulose) (HPC)) 95 % of control; under setting [19], 100 % of control; under setting [20], 102 % of control.
On to `CCOC(=O)C(Cc1ccc(N(CCCl)CCCl)cc1)NC(=O)C(Cc1ccc(N)cc1)NC(C)=O` (stereo unspecified), for which the T/C by setting is: (dose: 3.12 mg/kg/injection, schedule: Q01DX005 (ip), vehicle: saline with Tween-80) 123 % of control; (dose: 6.25 mg/kg/injection, schedule: Q01DX005 (ip), vehicle: saline with Tween-80) 159 % of control; (dose: 12.5 mg/kg/injection, schedule: Q01DX005 (ip), vehicle: saline with Tween-80) 207 % of control; (dose: 25.0 mg/kg/injection, schedule: Q01DX005 (ip), vehicle: saline with Tween-80) 298 % of control; under setting [21], 104 % of control and 115 % of control and 117 % of control; under setting [22], 114 % of control and 120 % of control. For the same compound, the T/C runs as follows: under setting [23], 122 % of control; (dose: 400.0 mg/kg/injection, schedule: Q01DX005 (ip), vehicle: saline with Tween-80) 115 % of control.
`Cc1ccc2[nH]c(=S)[nH]c2c1`: the T/C reads like this: under setting [16], 95 % of control; under setting [17], 94 % of control; under setting [24], 96 % of control; under setting [18], 93 % of control.
`CNC(=O)OCc1c(-c2ccccc2)nc2n1CCS2`: the T/C runs as follows: (dose: 12.5 mg/kg/injection, schedule: Q01DX001 (ip), vehicle: Klucel (hydroxypropylcellulose) (HPC)) 108 % of control; (dose: 25.0 mg/kg/injection, schedule: Q01DX001 (ip), vehicle: Klucel (hydroxypropylcellulose) (HPC)) 107 % of control; under setting [8], 113 % of control.
With `Cc1ccc(/C=N/S(=O)(=O)Cc2ccccc2)cc1`, the T/C reads like this: under setting [5], 99 % of control; under setting [6], 100 % of control; under setting [7], 100 % of control.
Regarding `CCN(CC)CCOC(=O)c1ccc(NC(=O)Nc2ccc(C(=O)OCCN(CC)CC)cc2)cc1`, the T/C runs as follows: under setting [10], 102 % of control; under setting [11], 107 % of control; under setting [12], 118 % of control.
For `CC1OC(OCC2OC(Oc3c(-c4ccc(O)cc4)oc4cc(OC5OC(C)C(O)C(O)C5O)cc(O)c4c3=O)C(O)C(O)C2O)C(O)C(O)C1O` (stereo unspecified), the T/C runs as follows: under setting [24], 95 % of control; (dose: 100.0 mg/kg/injection, schedule: Q04DX003 (ip), vehicle: saline sonified) 90 % of control; under setting [18], 95 % of control; (dose: 200.0 mg/kg/injection, schedule: Q04DX003 (ip), vehicle: saline sonified) 90 % of control; (dose: 400.0 mg/kg/injection, schedule: Q01DX009 (ip), vehicle: saline with Tween-80) 95 % of control; (dose: 400.0 mg/kg/injection, schedule: Q04DX003 (ip), vehicle: saline sonified) 90 % of control.
Turning to `Cn1c2nc(-[n+]3ccc(Cc4ccccc4)cc3)nc-2c([O-])n(C)c1=O`, the T/C under setting [2] was 100 % of control, the T/C under setting [3] is 99 % of control and the T/C under setting [4] was 95 % of control.
In the case of `ClCCn1cnc2c(SCc3ccccc3Cl)ncnc21`, the T/C under setting [16] is 100 % of control, the T/C under setting [17] is 90 % of control and the T/C under setting [24] is 90 % of control.
